Read-outs that look alike come from different tables or passages of the source.
What was measured:
[1] = Metabolic stability in dog liver microsomes; format: in vitro ADME; details: Beagle
Protocol: (§1) The metabolic stability of test compounds was examined in CD-1 mouse, Sprague Dawley rat, Beagle dog, cynomolgus monkey, and human liver microsomes. Test compound (final concentration 1 μM) was mixed with diluted liver microsomes from each of the 5 species and a small aliquot was taken at 0, 5, 10, 20, 30, and 60 minutes for LC/MS/MS analysis. Intrinsic clearance and half-life were calculated.

[2] = Metabolic stability in monkey liver microsomes; format: in vitro ADME, cynomolgus monkey
Protocol: as §1

[3] = Pharmacokinetic studies in Sprague Dawley rats (oral gavage and IV); format: in vivo; details: rat, male SD rats, plasma; for AUC(0-t): read-out: AUC0-24 h; for bioavailability: oral 5 mg/kg vs IV 1 mg/kg, read-out: Bioavailibility F %
Protocol: The pharmacokinetics of test compounds was evaluated in male SD rats when administered via oral gavage and IV injection. For oral dosing, compound was formulated in 0.5% methylcellulose and administered at doses of 5 mg/kg (3 rats per dose level) and volume of 10 mL/kg. For IV dosing, compound was formulated in 5% DMSO/5% Solutol/90% saline and administered to 3 rats at a dose of 1 mg/kg and a volume of 5 mL/kg. The rats were fasted overnight before administration. Plasma samples were collected predose and at 0.5, 1, 3, 6, 9, 12, and 24 hours postdose. The samples were analyzed by LC/MS/MS and the concentration of test compound at each timepoint was determined by linear regression. Pharmacokinetic parameters were calculated from the plasma concentrations using Pheonix WinNonlin.

[4] = Metabolic stability in rat liver microsomes; format: in vitro ADME; details: Sprague Dawley
Protocol: as §1

[5] = tested on: IFNγ-induced NO production in Raw 264.7 cells; experiment: Nitric oxide assay: suppression of IFNγ-induced NO production (Griess nitrite, adjusted to live cell numbers); format: cell-based; details: Mus musculus, RAW264.7, 2 h pretreatment, IFNγ 10 ng/ml for 24 hours
Method in brief: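 Raw 264.7 cells in DMEM + 2% FBS were pretreated 2 h with compound (10-point, 1:4 dilution from 100 nM), then stimulated with 10 ng/ml mouse IFNγ for 24 h. Media nitrite was read by Griess and normalised to CellTiter-Glo viability. IC50 from four-parameter fit of % inhibition.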

[6] = Metabolic stability in mouse liver microsomes; format: in vitro ADME, CD-1 mouse; details: CD-1
Protocol: as §1

[7] = Metabolic stability in human liver microsomes; format: in vitro ADME
Protocol: as §1

NQO1 = NQO1 activity assay in Raw264.7 cell lysates; format: cell-based; details: Mus musculus; Raw264.7 cells, 48 hours treatment
Protocol: Raw264.7 cells were seeded in DMEM+10% FBS in 96-well plates at a density of 10,000 cells per well. 6 hours after plating, cells were treated with DMSO or test compounds (top dose 100 nM, 1:4 serial dilution, 8-point) for 48 hours. NQO1 activity was then detected in cell lysates using NQO1 activity assay kit (Abeam, Cat#ab184867). NQO1 activity was then plotted against compound concentration, and EC50 values were calculated using four-parameter algorithm in Graphpad Prism.

CYP2D6 = target: T1, CYP2D6 (Homo sapiens, UniProt P10635); experiment: CYP450 enzyme inhibition in liver microsomes (cocktail probe incubation); format: in vitro ADME; details: species not given, 0.05-50 μM tested
T1 construct: studied in liver microsomes of CD-1 mouse, Sprague Dawley rat, Beagle dog, cynomolgus monkey, and human; from tissue; host or cells: liver microsomes
T1 sequence (P10635 whole entry): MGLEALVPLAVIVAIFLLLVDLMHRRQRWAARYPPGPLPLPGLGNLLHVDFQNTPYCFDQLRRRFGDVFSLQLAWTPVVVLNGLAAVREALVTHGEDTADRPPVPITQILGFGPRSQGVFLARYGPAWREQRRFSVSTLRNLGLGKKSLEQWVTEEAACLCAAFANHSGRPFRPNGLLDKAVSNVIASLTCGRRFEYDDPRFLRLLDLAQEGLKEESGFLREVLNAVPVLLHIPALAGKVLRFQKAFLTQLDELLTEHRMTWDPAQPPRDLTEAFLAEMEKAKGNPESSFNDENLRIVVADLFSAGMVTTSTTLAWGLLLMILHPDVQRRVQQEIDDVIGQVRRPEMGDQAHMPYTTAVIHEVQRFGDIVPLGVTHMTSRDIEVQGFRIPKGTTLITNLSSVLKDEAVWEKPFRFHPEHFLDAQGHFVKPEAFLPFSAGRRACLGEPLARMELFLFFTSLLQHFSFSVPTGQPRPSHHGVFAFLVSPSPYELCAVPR
Method in brief: (§2)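 Liver microsomes (CD-1 mouse, SD rat, Beagle dog, cynomolgus monkey, human) incubated with a cocktail of CYP-specific probe substrates. Test compounds at seven concentrations (0.05, 0.15, 0.5, 1.5, 5, 15, 50 μM). Known inhibitors included as positive controls at a single concentration above their IC50.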

CYP2C19 = target: T2, CYP2C19 (Homo sapiens, UniProt P33261); experiment: as above; format: in vitro ADME; details: species not given, 0.05-50 μM tested
T2 construct: studied in liver microsomes of CD-1 mouse, Sprague Dawley rat, Beagle dog, cynomolgus monkey, and human; from tissue; host or cells: liver microsomes
T2 sequence (P33261 whole entry): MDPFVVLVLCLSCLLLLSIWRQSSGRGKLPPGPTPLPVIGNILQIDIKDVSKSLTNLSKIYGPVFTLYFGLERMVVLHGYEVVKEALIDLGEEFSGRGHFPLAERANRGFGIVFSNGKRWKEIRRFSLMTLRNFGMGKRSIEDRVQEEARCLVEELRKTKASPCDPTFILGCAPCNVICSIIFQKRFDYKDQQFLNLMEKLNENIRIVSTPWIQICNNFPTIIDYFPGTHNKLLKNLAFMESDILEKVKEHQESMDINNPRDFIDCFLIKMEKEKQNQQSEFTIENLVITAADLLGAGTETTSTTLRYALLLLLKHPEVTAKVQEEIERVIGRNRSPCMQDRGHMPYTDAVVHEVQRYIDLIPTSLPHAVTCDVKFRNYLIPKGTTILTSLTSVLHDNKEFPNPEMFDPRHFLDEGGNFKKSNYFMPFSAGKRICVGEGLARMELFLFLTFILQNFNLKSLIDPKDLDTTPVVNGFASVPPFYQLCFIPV
Method in brief: as §2

CYP3A4 = target: T3, CYP3A4 (Homo sapiens, UniProt P08684); experiment: as above; format: in vitro ADME; details: species not given, 0.05-50 μM tested
T3 construct: studied in liver microsomes of CD-1 mouse, Sprague Dawley rat, Beagle dog, cynomolgus monkey, and human; from tissue; host or cells: liver microsomes
T3 sequence (P08684 whole entry): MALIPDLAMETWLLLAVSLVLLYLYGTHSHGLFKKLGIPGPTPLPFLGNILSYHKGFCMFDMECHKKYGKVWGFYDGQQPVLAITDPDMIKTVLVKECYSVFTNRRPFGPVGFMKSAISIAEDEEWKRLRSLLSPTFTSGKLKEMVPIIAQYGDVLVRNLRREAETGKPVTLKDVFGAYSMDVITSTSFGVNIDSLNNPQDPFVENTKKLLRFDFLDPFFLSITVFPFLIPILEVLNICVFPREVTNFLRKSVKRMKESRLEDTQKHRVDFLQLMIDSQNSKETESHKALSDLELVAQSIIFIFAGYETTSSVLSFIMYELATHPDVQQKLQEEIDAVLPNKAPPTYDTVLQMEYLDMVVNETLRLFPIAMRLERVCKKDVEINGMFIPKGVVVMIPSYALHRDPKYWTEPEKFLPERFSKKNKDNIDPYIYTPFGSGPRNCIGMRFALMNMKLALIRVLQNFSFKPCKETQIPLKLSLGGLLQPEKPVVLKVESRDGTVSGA
Method in brief: as §2

CYP2C9 = target: T4, CYP2C9 (Homo sapiens, UniProt P11712); experiment: as above; format: in vitro ADME; details: species not given, 0.05-50 μM tested
T4 construct: studied in liver microsomes of CD-1 mouse, Sprague Dawley rat, Beagle dog, cynomolgus monkey, and human; from tissue; host or cells: liver microsomes
T4 sequence (P11712 whole entry): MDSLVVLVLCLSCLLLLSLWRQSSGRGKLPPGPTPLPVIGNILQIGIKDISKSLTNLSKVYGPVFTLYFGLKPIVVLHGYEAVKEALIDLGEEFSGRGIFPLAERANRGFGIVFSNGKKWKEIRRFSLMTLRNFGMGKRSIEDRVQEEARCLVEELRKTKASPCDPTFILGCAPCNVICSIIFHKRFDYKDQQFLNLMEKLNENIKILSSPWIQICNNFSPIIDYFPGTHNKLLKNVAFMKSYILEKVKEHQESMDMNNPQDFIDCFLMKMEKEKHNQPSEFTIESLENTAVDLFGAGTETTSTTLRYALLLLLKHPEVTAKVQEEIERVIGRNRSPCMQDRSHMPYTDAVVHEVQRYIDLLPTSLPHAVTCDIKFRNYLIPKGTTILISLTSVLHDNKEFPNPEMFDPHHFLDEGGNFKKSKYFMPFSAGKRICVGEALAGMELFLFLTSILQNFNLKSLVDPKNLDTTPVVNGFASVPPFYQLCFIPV
Method in brief: as §2

CYP1A2 = target: T5, CYP1A2 (Homo sapiens, UniProt P05177); experiment: as above; format: in vitro ADME; details: species not given, 0.05-50 μM tested
T5 construct: studied in liver microsomes of CD-1 mouse, Sprague Dawley rat, Beagle dog, cynomolgus monkey, and human; from tissue; host or cells: liver microsomes
T5 sequence (P05177 1-516): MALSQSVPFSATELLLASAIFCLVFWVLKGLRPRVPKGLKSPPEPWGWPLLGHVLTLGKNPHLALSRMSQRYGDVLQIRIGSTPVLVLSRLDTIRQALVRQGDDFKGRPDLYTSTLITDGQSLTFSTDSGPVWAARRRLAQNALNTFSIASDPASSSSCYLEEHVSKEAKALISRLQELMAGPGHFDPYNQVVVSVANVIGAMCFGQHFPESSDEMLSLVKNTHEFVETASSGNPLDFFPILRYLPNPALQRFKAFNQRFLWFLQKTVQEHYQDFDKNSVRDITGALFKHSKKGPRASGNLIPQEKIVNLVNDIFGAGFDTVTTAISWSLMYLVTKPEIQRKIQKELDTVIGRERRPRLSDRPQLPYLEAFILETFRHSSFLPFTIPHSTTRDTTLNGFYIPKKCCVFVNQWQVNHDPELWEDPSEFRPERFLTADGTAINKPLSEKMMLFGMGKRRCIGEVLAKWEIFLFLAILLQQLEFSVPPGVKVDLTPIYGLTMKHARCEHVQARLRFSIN
Method in brief: as §2

| SMILES | CLint scaled at 1 μM [1] [mL/min/kg] | half-life at 1 μM [1] [min] | CLint scaled at 1 μM [2] [mL/min/kg] | half-life at 1 μM [2] [min] | C0 ([3]; IV (1 mg/kg)) [ng/mL] | clearance ([3]; IV (1 mg/kg)) [mL/min/kg] | half-life ([3]; IV (1 mg/kg)) [min] | AUC(0-t) ([3]; IV (1 mg/kg)) [ng·h/mL] | Cmax ([3]; Oral (5 mg/kg)) [ng/mL] | half-life ([3]; Oral (5 mg/kg)) [min] | AUC(0-t) ([3]; Oral (5 mg/kg)) [ng·h/mL] | bioavailability [3] [%] | CLint scaled at 1 μM [4] [mL/min/kg] | half-life at 1 μM [4] [min] | IC50 [5] [µM] | CLint scaled at 1 μM [6] [mL/min/kg] | half-life at 1 μM [6] [min] | CLint scaled at 1 μM [7] [mL/min/kg] | half-life at 1 μM [7] [min] | EC50 (NQO1) [µM] | also measured |
| --- | --- | --- | --- | --- | --- | --- | --- | --- | --- | --- | --- | --- | --- | --- | --- | --- | --- | --- | --- | --- | --- |
| COC(=O)[C@]12CCC(C)(C)C[C@H]1[C@H]1C(=O)C=C3[C@@]4(C)C=C(C#N)C(=O)C(C)(C)[C@@H]4CC[C@@]3(C)[C@]1(C)CC2 [Control, reference compound] | 78 | 25.6 | 949 | 2 | 365 | 56.8 | 378 | 291 | 7 | 204 | 26 | 1.8 | 832 | 3 | < 0.01 | 180 | 30.6 | 95.4 | 13.1 | < 0.01 | IC50 (CYP2D6): > 50 µM; IC50 (CYP2C19): 5.2 µM; IC50 (CYP3A4): 2.6 µM; IC50 (CYP2C9): 1.7 µM; IC50 (CYP1A2): > 50 µM |
| CC1(C)C(=O)C(C#N)=C[C@]2(C)C3=CC(=O)[C@@H]4[C@@H]5C[C@@](C)(N6CC(O)C6)CC[C@]5(C)CC[C@@]4(C)[C@]3(C)CC[C@@H]12 [Example 26, (4aR,6aS,6bR,8aS,11S,12aS,14bS)-11-(3-hydroxyazetidin-1-yl)-4,4,6a,6b,8a,11,14b-heptamethyl-3,13-dioxo-3,4,4a,5,6,6a,6b,7,8,8a,9,10,11,12,12a,12b,13,14b-octadecahydropicene-2-carbonitrile] | 77.3 | 25.8 | 752 | 2.5 | 1040 | 56.3 | 282 | 294 | 57 | 216 | 270 | 18.3 | 161 | 15.5 | < 0.01 | 402 | 13.7 | 184 | 6.8 | < 0.01 | IC50 (CYP2D6): > 50 µM; IC50 (CYP2C19): > 50 µM; IC50 (CYP3A4): 14.6 µM; IC50 (CYP2C9): 27.6 µM; IC50 (CYP1A2): > 50 µM |
| Cc1nnc([C@@]2(C)CC[C@]3(C)CC[C@]4(C)[C@H](C(=O)C=C5[C@@]6(C)C=C(C#N)C(=O)C(C)(C)[C@@H]6CC[C@]54C)[C@@H]3C2)o1 [Example 1, (4aR,6aS,6bR,8aS,11S,12aS,12bR,14bS)-4,4,6a,6b,8a,11,14b-heptamethyl-11-(5-methyl-1,3,4-oxadiazol-2-yl)-3,13-dioxo-3,4,4a,5,6,6a,6b,7,8,8a,9,10,11,12,12a,12b,13,14b-octadecahydropicene-2-carbonitrile] | 37 | 54 | 269 | 7 | 349 | 63.8 | 102 | 258 | 170 | 132 | 1100 | 83.8 | 42 | 59.4 | < 0.01 | 423 | 13 | 168 | 7.4 | < 0.01 | IC50 (CYP2D6): 15 µM; IC50 (CYP2C19): 11.8 µM; IC50 (CYP3A4): 1 µM; IC50 (CYP2C9): 2.7 µM; IC50 (CYP1A2): > 50 µM |

Reference: US20220017566A1, “TERPINOID DERIVATIVES AND USES THEREOF” (SICHUAN HAISCO PHARMACEUTICAL CO., LTD., priority 2018, published 2022)
